From patent US20100298141A1, “SUBSTITUTED PYRIDINE N-OXIDE HERBICIDES” (E. I. DU PONT DE NEMOURS AND COMPANY, priority 2007, published 2010) come the findings set out here.

Assay in all cases: Test C pre-/postemergence test
In assay [1] the test system is blackgrass. It is filed as in vivo, Alopecurus myosuroides. As to conditions: for Plant response rating, Blackgrass: scale 0 to 100 (0 no effect, 100 complete control). The procedure, abridged: (§1)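 Compounds in a non-phytotoxic solvent with surfactant applied preemergence to seeded pots and, at the same time, postemergence to plants 2–18 cm tall (1- to 4-leaf stage). Paddy tests: pots flooded to 3 cm, compound applied into the water, depth held throughout.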

The test system of assay [2] is corn. The format is in vivo, Zea mays. The following applies: for Plant response rating, Corn: scale 0 to 100 (0 no effect, 100 complete control). The procedure, abridged:
as §1

Assay [3] concerns woolly cupgrass. It is filed as in vivo, Eriochloa villosa. The following applies: for Plant response rating, Cupgrass, Woolly: scale 0 to 100 (0 no effect, 100 complete control). The procedure, abridged: as §1
In assay [4] the test system is Russian thistle. The format is in vivo, Salsola kali. As to conditions: for Plant response rating, Russian Thistle: scale 0 to 100 (0 no effect, 100 complete control). The source says: Seeds of plant species selected from blackgrass (Alopecurus myosuroides), downy brome (Bromus tectorum), green foxtail (Setaria viridis), Italian ryegrass (Lolium multiflorum), wheat (Triticum aestivum), wild oat (Avena fatua), catchweed bedstraw (Galium aparine), Russian thistle (Salsola kali), […] (Cynodon dactylon), Surinam grass (Brachiaria decumbens), cocklebur (Xanthium strumarium), corn (Zea mays), crabgrass (Digitaria sanguinalis), woolly cupgrass (Eriochloa villosa), giant foxtail (Setaria faberii), Goosegrass (Eleusin indica), johnsongrass (Sorghum halepense), kochia (Kochia scoparia), lambsquarters (Chenopodium album), morningglory (Ipomoea coccinea), eastern black nightshade (Solanum ptycanthum), yellow nutsedge (Cyperus esculentus), pigweed (Amaranthus retroflexus), common ragweed (Ambrosia elation), soybean (Glycine max), common (oilseed) sunflower (Helianthus annuus), and velvetleaf (Abutilon theophrasti) were planted and treated preemergence with test chemicals formulated in a non-phytotoxic solvent mixture which included a surfactant. At the same time, plants selected from these crop and weed species and also winter barley (Hordeum vulgare), canarygrass (Phalaris minor), and chickweed (Stellaria media) were treated with postemergence applications of some of the test chemicals formulated in the same manner. Plants ranged in height from 2 to 18 cm (1- to 4-leaf stage) for postemergence treatments. […] At time of treatment, test pots were flooded to 3 cm above the soil surface, treated by application of test compounds directly to the paddy water, and then maintained at that water depth for the duration of the test. […] A dash (-) response means no test result.

The mark [5] stands for this setting: 62 g ai/ha, Preemergence, scale 0 to 100.
The mark [6] stands for this setting: preemergence, 250 g ai/ha, scale 0 (no effect) to 100 (complete control).
Where [7] appears, read: 125 g ai/ha, preemergence, scale 0 (no effect) to 100 (complete control).
Where [8] appears, read: 31 g ai/ha, Preemergence, scale 0 to 100.
Where [9] appears, read: 62 g ai/ha, preemergence, scale 0 (no effect) to 100 (complete control).
Where [10] appears, read: preemergence, 125 g ai/ha, scale 0 (no effect) to 100 (complete control).

For `Cn1nc(C(F)(F)F)c(C[S+]([O-])c2cc(Br)cc[n+]2[O-])c1Cl` (racemic) [Compound 35], the “Blackgrass plant response rating” value in assay [1] (setting [5]) was 0; in assay [1] (setting [6]) it was 50. Further, the “Plant response rating, Blackgrass” value in assay [1] (Preemergence, 31 g ai/ha) was determined as 0. Moreover, the “Corn plant response rating” value in assay [2] (setting [5]) is 10; in assay [2] (setting [7]) it was 30; in assay [2] (setting [6]), 65. In assay [2] (Preemergence, 31 g ai/ha), the “Plant response rating, Corn” value was found to be 10. Besides, the “Cupgrass, Woolly plant response rating” value came out at 80 in assay [3] (setting [5]), 85 in assay [3] (setting [7]) and 100 in assay [3] (setting [6]). The “Plant response rating, Cupgrass, Woolly” value in assay [3] (Preemergence, 31 g ai/ha) amounted to 0. Moreover, the “Russian Thistle plant response rating” value in assay [4] (setting [5]), in assay [4] (setting [7]) and in assay [4] (setting [6]) was 100 throughout. For the same molecule, the “Plant response rating, Russian Thistle” value in assay [4] (Preemergence, 31 g ai/ha) is recorded as 100.

For `Cn1nc(C(F)(F)F)c(C(Cl)S(=O)(=O)c2cccc[n+]2[O-])c1OCC(F)(F)F` (racemic) [Compound 36], the results for the “Blackgrass plant response rating” value in assay [1] (setting [5]), in assay [1] (setting [7]) and in assay [1] (setting [6]) were 95, 95 and 100, respectively. Further, in assay [1] (Preemergence, 31 g ai/ha), the “Plant response rating, Blackgrass” value is 60. Besides, the “Corn plant response rating” value is given as 40 in assay [2] (setting [5]), 60 in assay [2] (setting [7]) and 80 in assay [2] (setting [6]). Moreover, in assay [2] (Preemergence, 31 g ai/ha), the “Plant response rating, Corn” value is recorded as 0. For the same molecule, the “Cupgrass, Woolly plant response rating” value in assay [3] (setting [5]) was 55; in assay [3] (setting [7]) it was 100; in assay [3] (setting [6]), 100. The “Plant response rating, Cupgrass, Woolly” value in assay [3] (Preemergence, 31 g ai/ha) was determined as 55. For the same molecule, the “Plant response rating, Russian Thistle” value in assay [4] (Preemergence, 31 g ai/ha) was 0. In addition, in assay [4] (setting [6]), the “Russian Thistle plant response rating” value amounted to 60.

Regarding `Cn1nc(C(F)(F)F)c(C(Cl)S(=O)(=O)c2cccc[n+]2[O-])c1Cl` (stereo not shown) [Compound 12], the entries for the “Blackgrass plant response rating” value in assay [1] (setting [8]), in assay [1] (setting [9]) and in assay [1] (setting [10]) were 0, 98 and 98, respectively. In addition, the “Plant response rating (0 to 100), Blackgrass” value in assay [1] (Preemergence, 250 g ai/ha) was 100. For the same molecule, the “Corn plant response rating” value in assay [2] (setting [8]), in assay [2] (setting [9]) and in assay [2] (setting [10]) was 0 throughout. Moreover, the “Plant response rating (0 to 100), Corn” value in assay [2] (Preemergence, 250 g ai/ha) worked out at 45. Moreover, the entries for the “Cupgrass, Woolly plant response rating” value in assay [3] (setting [8]), in assay [3] (setting [9]) and in assay [3] (setting [10]) were 80, 100 and 100, respectively. The “Plant response rating (0 to 100), Cupgrass, Woolly” value in assay [3] (Preemergence, 250 g ai/ha) was 100. Moreover, the “Russian Thistle plant response rating” value in assay [4] (setting [8]), in assay [4] (setting [9]) and in assay [4] (setting [10]) was 100 each time. Further, in assay [4] (Preemergence, 250 g ai/ha), the “Plant response rating (0 to 100), Russian Thistle” value came out at 100.

`Cn1nc(C(F)(F)F)c(CS(=O)(=O)c2ccc(Cl)c[n+]2[O-])c1Cl` [Compound 18]: the “Blackgrass plant response rating” value in assay [1] (setting [5]) is recorded as 0; in assay [1] (setting [10]) it was 98. Further, in assay [1] (Preemergence, 31 g ai/ha), the “Plant response rating, Blackgrass” value is reported as 0. Besides, the “Plant response rating (0 to 100), Blackgrass” value in assay [1] (Preemergence, 250 g ai/ha) stood at 98. The “Corn plant response rating” value in assay [2] (setting [5]) and in assay [2] (setting [10]) was 0 throughout. In addition, the “Plant response rating, Corn” value in assay [2] (Preemergence, 31 g ai/ha) turned out to be 0. In addition, in assay [2] (Preemergence, 250 g ai/ha), the “Plant response rating (0 to 100), Corn” value is 15. Also, the “Cupgrass, Woolly plant response rating” value in assay [3] (setting [5]) is on record as 80. Also, in assay [3] (Preemergence, 31 g ai/ha), the “Plant response rating, Cupgrass, Woolly” value is given as 10. Moreover, the “Plant response rating (0 to 100), Cupgrass, Woolly” value in assay [3] (Preemergence, 250 g ai/ha) worked out at 100. Besides, the “Russian Thistle plant response rating” value in assay [4] (setting [5]) was 30. Besides, the “Plant response rating, Russian Thistle” value in assay [4] (Preemergence, 31 g ai/ha) was 0.
